{
  "source": "patent US20250041278A1",
  "about": "“TLR8 AGONIST FOR MODULATING IMMUNE RESPONSE” (The Children's Medical Center Corporation, priority 2021, published 2025)",
  "biological_target": "T1, hTLR8 (Homo sapiens, UniProt Q9NR97)",
  "T1 construct": "host or cells: HEK-293 reporter cells",
  "T1 sequence (Q9NR97 27-1041)": "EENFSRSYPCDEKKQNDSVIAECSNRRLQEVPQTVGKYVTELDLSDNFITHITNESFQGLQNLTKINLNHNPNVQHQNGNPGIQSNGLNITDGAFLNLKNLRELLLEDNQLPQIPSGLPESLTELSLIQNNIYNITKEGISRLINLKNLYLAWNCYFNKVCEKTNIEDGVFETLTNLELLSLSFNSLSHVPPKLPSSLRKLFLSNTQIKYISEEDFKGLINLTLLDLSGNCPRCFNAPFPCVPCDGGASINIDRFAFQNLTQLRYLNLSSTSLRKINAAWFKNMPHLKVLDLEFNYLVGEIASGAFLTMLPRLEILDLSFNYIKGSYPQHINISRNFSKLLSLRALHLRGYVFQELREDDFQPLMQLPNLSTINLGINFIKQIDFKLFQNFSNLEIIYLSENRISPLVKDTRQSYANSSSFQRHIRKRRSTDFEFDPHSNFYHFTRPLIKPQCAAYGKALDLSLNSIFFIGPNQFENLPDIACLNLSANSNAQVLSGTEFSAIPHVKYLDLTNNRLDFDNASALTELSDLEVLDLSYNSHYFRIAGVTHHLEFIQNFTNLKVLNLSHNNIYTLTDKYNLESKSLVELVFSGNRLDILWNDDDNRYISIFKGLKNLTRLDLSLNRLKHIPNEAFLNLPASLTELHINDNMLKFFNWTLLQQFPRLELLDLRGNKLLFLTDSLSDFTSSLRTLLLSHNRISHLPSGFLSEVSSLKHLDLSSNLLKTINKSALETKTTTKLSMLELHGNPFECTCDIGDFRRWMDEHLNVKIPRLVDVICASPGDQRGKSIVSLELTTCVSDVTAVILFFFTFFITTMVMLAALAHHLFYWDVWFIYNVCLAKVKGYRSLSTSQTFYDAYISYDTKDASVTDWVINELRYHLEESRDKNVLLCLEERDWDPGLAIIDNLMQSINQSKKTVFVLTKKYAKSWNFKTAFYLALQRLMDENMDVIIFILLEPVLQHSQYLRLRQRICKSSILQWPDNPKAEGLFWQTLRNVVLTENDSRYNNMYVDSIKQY",
  "assay": "HEK-293 hTLR8 NF-κB/AP-1 SEAP reporter assay",
  "type": "cell-based",
  "experimental": "FIGS. 3A-3E. PVP-179 is a TLR8 agonist. FIG. 3A: PVP-179 was sent to InvivoGen for PRR ligand screening service. Various cells lines were utilized to screen for PVP-179-induced ([…]) activation of TLRs, NOD1/2, RIG-I/MDA-5, Dectin-1 or Mincle receptor. The heat-map depicts percentage activity compared to the positive control for each receptor. FIG. 3B: PVP-179 induced activity (% activity compared to the positive control: CL075 at 1 μg/mL) in HEK-293 cells specifically expressing hTLR8. In brief, these cells have an NF-κB/AP-1-inducible secreted embryonic alkaline phosphatase (SEAP) reporter gene which allows monitoring of signaling via TLR8. After incubation for 16-24 hours, supernatant harvested from the cells is mixed with media containing SEAP-substrate and the optical density (OD) is measured at 650 nm using a spectrophotometer. FIG. 3C: As in FIG. 3B, HEK cells specifically expressing hTLR2, hTLR7, or hTLR8, in addition to the HEK-Null cell line carrying only the reporter gene, were stimulated with the indicated concentrations of PVP-179. […] PVP-179 activity is expressed as a percentage of NF-κB induced in the cells stimulated with TNF (positive control for each cell line). […] The supernatants were harvested after 20-24 hours and SEAP production (to assess NF-κB activity) was measured using QUANTIBlue assay. […]",
  "data": [
    {"smiles": "CCCCn1c(/N=C/c2nc3ccccc3n2C)nc2ccccc21", "note": "[PVP-179]", "values": [
      {"measurement": "NF-κB activity in HEK cells expressing hTLR8", "setting": "20-24 hours", "value": "concentration-dependent activity"},
      {"measurement": "activity in HEK-hTLR8 cells after TLR8 inhibitor CUCPT-9a", "setting": "CUCPT-9a 1 μM, PVP-179 at 33 μM or above", "value": "significantly blocked"}
    ]}
  ]
}
